From patent US20060100257A1, “Inhibitors against the activation of ap-1 and nfat” (priority 2002, published 2006)

Key:
[1] = tested on: NFAT; test: Inhibition of NFAT activation (2) (NFAT Luc reporter, HepG2); type: cell-based, human; conditions: HepG2, TPA (200 nM) and ionomycin (2 μM); for Inhibition Ratio of NFAT Activation(%) Drug Concentration 1 μM: test compound 1 μM; for Inhibition Ratio of NFAT Activation(%) Drug Concentration 1 μg/mL: test compound 1 μg/mL
Protocol: Measurement of Inhibition of NFAT Activation (2)
Using a transfection reagent (Effectene; QIAGEN), the human hepatoma cell strain HepG2 was transfected with a plasmid (NFAT Luc) which was integrated with an NFAT binding sequence on a upstream region of the firefly luciferase gene (Luc) according to the QIAGEN's protocol, and the cells were incubated for 20 to 24 hours.
After incubation of the cells in the presence or absence of a test compound for 4 hours, TPA (200 nM) and ionomycin (2 μM) were added and the cells were incubated for 20 to 24 hours.
Then, intracellular luciferase activity was measured by using PicaGene LT(TOYO INK MFG Co., Ltd.) and a chemical luminescence measurement apparatus (SPECTRAFluor Plus; TECAN).
The inhibitory ratio was measured as a ratio relative to the value of the luciferase activity in the absence of the test compound.

[2] = tested on: AP-1; test: Inhibition of AP-1 activation by forced expression of MEKK-1 (pAP-1-Luc reporter, HepG2); type: cell-based, human; conditions: HepG2, MEKK-1 expression plasmid, 24 hours; for Inhibitory Ratio of AP-1 Activation(%) Drug Concentration 1 μM: test compound 1 μM; for Inhibitory Ratio of AP-1 Activation(%) Drug Concentration 1 μg/mL: test compound 1 μg/mL
Description: Measurement of Inhibition of AP-1 Activation by Forced Expression of MEKK-1
Using a transfection reagent (Effectene; QIAGEN), the human hepatoma cell strain HepG2 was cotransfected with a plasmid (pAP-1-Luc Reporter Plasmid: STRATAGENE), integrated with an oligonucleotide having seven tandem copies of AP-1 binding sequences (TGACTAA) on an upstream region of the firefly luciferase gene (Luc), and the MEKK-1 expression plasmid (pFCMEKK: STRATAGENE) according to the QIAGEN's protocol, and the cells were incubated for 20 to 24 hours. Then, after the cells were incubated in the presence or absence of a test compound for 24 hours, intracellular luciferase activity was measured by using PicaGene LT(TOYO INK MFG Co., Ltd.) and a chemical luminescence measurement apparatus (SPECTRAFluor Plus; TECAN). The inhibitory ratio was measured as a ratio relative to the value of the luciferase activity in the absence of the test compound.

[3] = tested on: AP-1; test: Inhibition of AP-1 activation by TNF α stimulation (pAP-1-Luc reporter, HeLa); type: cell-based, human; conditions: TNF-α (40 ng/ml), 4 hours; for Inhibitory Ratio of AP-1 Activation(%) Drug Concentration 1 μg/mL: test compound 1 μg/mL; for Inhibitory Ratio of AP-1 Activation(%) Drug Concentration 10 μg/mL: test compound 10 μg/mL
Protocol: Measurement of Inhibition of AP-1 Activation by TNF α Stimulation
Using a transfection reagent (Effectene; QIAGEN), the human uterine cancer cell strain HeLa was transfected with a plasmid (pAP-1-Luc Reporter Plasmid: STRATAGENE) according to the QIAGEN's protocol, which was integrated with an oligonucleotide having seven tandem copies of AP-1 binding sequences (TGACTAA) on a upstream region of firefly luciferase gene (Luc), and the cells were incubated for 6 to 24 hours. Then, the cells were added with TNF-α (40 ng/ml) in the presence or absence of a test compound and incubated for 4 hours, and intracellular luciferase activity was measured by using PicaGene LT(TOYO INK MFG Co., Ltd.) and chemical luminescence measurement apparatus(SPECTRAFluor Plus; TECAN). The inhibitory ratio was obtained as a ratio relative to the value of the luciferase activity in the absence of the test compound.

[4] = tested on: NFAT; test: Inhibition of NFAT activation (1) (NFAT-LacZ reporter, Jurkat cell); type: cell-based; conditions: A23187 and PMA, 4 hours
Protocol: Measurement of Inhibition of NFAT Activation (1)
A Jurkat cell transfected with a reporter plasmid (NFAT-LacZ), which was integrated with the NFAT binding sequence on a upstream region of the β-galactosidase gene (LacZ) according to the method described in the “Proceedings of The National Academy of Sciences of The United States of America” 1991, Vol. 88, No. 9, p. 3972-3976, was incubated for 4 hours in the Modified RPMI 1640 medium in the presence of A23187 as a calcium ionophore and PMA (Phorbol 12-myristate 13-acetate), and in the presence or absence of a test compound. Then, intracellular β-galactosidase activity was measured by the method described in the “Proceedings of The National Academy of Sciences of The United States of America” 1991, Vol. 88, No. 9, p. 3972-3976. The inhibitory ratio was obtained as a ratio relative to the value of the β-galactosidase activity in the absence of the test compound.

Row | SMILES | Inhibition Ratio of NFAT Activation(%) Drug Concentration 1 μg/mL [1] [%] | Inhibitory Ratio of AP-1 Activation(%) Drug Concentration 1 μg/mL [2] [%] | Inhibitory Ratio of AP-1 Activation(%) Drug Concentration 1 μg/mL [3] [%] | Inhibitory Ratio of AP-1 Activation(%) Drug Concentration 10 μg/mL [3] [%] | also measured
1 | CC(C)(C)c1ccc(O)c(C(=O)Nc2cc(C(F)(F)F)cc(C(F)(F)F)c2)c1 [Compound No. 56, N-[3,5-Bis(trifluoromethyl)phenyl]-5-[(1,1-dimethyl)ethyl]-2-hydroxybenzamide] | 99.7 | 96.3 | – | – | Inhibition Ratio of NFAT Activation(%) Drug Concentration 1 μM [1]: 88.9%; Inhibitory Ratio of AP-1 Activation(%) Drug Concentration 1 μM [2]: 82.6%
2 | O=C(Nc1cc(C(F)(F)F)cc(C(F)(F)F)c1)c1cc(-c2ccccc2)ccc1O [Compound No. 67] | >99.9 | 94.8 | 18.1 | 60.9 | –
3 | CCOC(=O)c1sc(NC(=O)c2cc(Br)ccc2O)nc1-c1ccccc1 [compound 209, 2-(5-bromo-2-hydroxybenzoyl)amino-4-phenylthiazole-5-carboxylic acid ethyl ester] | – | – | 21.7 | 55.3 | –
4 | CCOC(=O)c1sc(NC(=O)c2cc(-c3cccs3)ccc2O)nc1-c1ccccc1 [compound 223, 2-[2-Hydroxy-5-(2-thienyl)benzoyl]amino-4-phenylthiazole-5-carboxylic acid ethyl ester] | – | – | – | 7.0 | –
5 | CC(C)(C)c1nc(NC(=O)c2cc(Br)ccc2O)sc1N1CCN(c2ccccc2)CC1 [compound 201, 5-Bromo-N-{4-[(1,1-dimethyl)ethyl]-5-(4-phenylpiperazin-1-yl)thiazol-2-yl}-2-hydroxybenzamide] | >99.9 | 79.1 | – | – | –
6 | CC(C)(C)C(=O)c1sc(NC(=O)c2cc(Cl)ccc2O)nc1C(C)(C)C [compound 195, 5-Chloro-N-{4-[(1,1-dimethyl)ethyl]-5-[(2,2-dimethyl)propionyl]thiazol-2-yl}-2-hydroxybenzamide] | 86.7 | 95.5 | – | – | Inhibition Ratio of NFAT Activation(%) Drug Concentration 1 μM [1]: 96.8%; Inhibitory Ratio of AP-1 Activation(%) Drug Concentration 1 μM [2]: 91.2%
7 | O=C(Nc1cc(C(F)(F)F)cc(C(F)(F)F)c1)c1cc(I)ccc1O [Compound No. 52, N-[3,5-bis(trifluoromethyl)phenyl]-2-hydroxy-5-iodobenzamide] | – | – | 25.4 | 82.4 | –
8 | CC(C)(C)c1nc(NC(=O)c2cc(Br)ccc2O)sc1N1CCOCC1 [compound 199, 5-Bromo-N-{4-[(1,1-dimethyl)ethyl]-5-morpholinothiazol-2-yl}-2-hydroxybenzamide] | >99.9 | 70.6 | – | – | –
9 | O=C(Nc1cc(C(F)(F)F)cc(C(F)(F)F)c1)c1cc(-n2cccc2)ccc1O [Compound No. 71] | >99.9 | 98.0 | – | – | –
10 | O=C(Nc1cc(C(F)(F)F)cc(C(F)(F)F)c1)c1cc(Cl)ccc1O [Compound No. 50, N-[3,5-Bis(trifluoromethyl)phenyl]-5-chloro-2-hydroxybenzamide] | 99.5 | 99.4 | 42.4 | 89.1 | Inhibitory Ratio of NFAT Activation(%) Drug Concentration 1 μM ([4]; test compound 1 μM): 70%; Inhibitory Ratio of NFAT Activation(%) Drug Concentration 10 μM ([4]; test compound 10 μM): 100%; Inhibition Ratio of NFAT Activation(%) Drug Concentration 1 μM [1]: 94.8%; Inhibitory Ratio of AP-1 Activation(%) Drug Concentration 1 μM [2]: 90.7%
11 | O=C(Nc1cc(C(F)(F)F)cc(C(F)(F)F)c1)c1cc(C#Cc2ccccc2)ccc1O [Compound No. 65, N-[3,5-bis(trifluoromethyl)phenyl]-2-hydroxy-5-(phenylethynyl)benzamide] | – | – | – | 44.1 | –
12 | CC(=O)Oc1ccccc1C(=O)Nc1cc(Cl)cc(Cl)c1 [compound 172, 2-acetoxy-N-(3,5-dichlorophenyl)benzamide] | – | – | – | – | melting point: 218 to 219 °C
